Assay [1] has as its system Alternaria solani (ALTESO). Description: Fungal growth assay in 96 well plates. Conditions: OD 600 nm, about 18° C. It counts as cell-based.
Assay [2] has as its system Septoria tritici (SEPTTR). It counts as in vivo. Conditions: protective application, 360 ppm.
For assay [3], the system named is Phytophthora infestans (PHYTIN). In kind it is in vivo. Conditions: protective application, 7.2 ppm.
Assay [4] concerns Botrytis cinerea (BOTRCI). Description: Fungal growth assay in 96 well plates. It counts as cell-based. Conditions: evaluation 7 days after inoculation, OD 600 nm, about 18° C.; read-out: Fungal growth inhibition (IC50 [μM]) BOTRCI (7 d).

SMILES strings stand for the structures. Where two headings read alike, the source gives them in different places. Positions of bridges follow the written chain, without caps; N, C: chain ends. Non-standard residues stand in square brackets, D forms with d. Residues, ends and D or L forms follow the SMILES beside them. ξ: configuration not given here. *: point of attachment. Pentadecanoyl(3ξ-OH,15-Gua) = N=C(N)NCCCCCCCCCCCCC(O)CC(=O)*; Thr(3ξ) = CC(O)[C@H](N)C(=O)O; ξY = NC(Cc1ccc(O)cc1)C(=O)O

For the molecule `CC1OC(=O)[C@@H](C)NC(=O)[C@@H](CCC(N)=O)NC(=O)[C@@H]([C@H](C)O)NC(=O)C(Cc2ccc(O)cc2)NC(=O)[C@@H](C(C)C)NC(=O)[C@H]1NC(=O)CC(O)CCCCCCCCCCCCN=C(N)N` (some centres unmarked) [Fusaricidin D, fusaricidin D] ({Pentadecanoyl(3ξ-OH,15-Gua)}-[Thr(3ξ)][dV][ξY][dT][dQ][dA]; ester 1-C), the half-inhibitory concentration (IC50) in assay [1] (evaluation 3 days after inoculation, read-out: Fungal growth inhibition (IC50 [μM]) ALTESO (3 d)) was 1.1 µM; in assay [1] (evaluation 7 days after inoculation, read-out: Fungal growth inhibition (IC50 [μM]) ALTESO (7 d)), 0.6 µM; in assay [4], 0.5 µM. In assay [2], the “% efficacy (% fungal attack), head blight on wheat caused by Septoria tritici” value was 50%. Further, the “% efficacy (% fungal attack), late blight on tomato caused by Phytophthora infestans” value in assay [3] is reported as 0%.

Values taken from patent publication US20250212891A1, “MIXTURES AND COMPOSITIONS COMPRISING PAENIBACILLUS STRAINS OR FUSARICIDINS AND CHEMICAL PESTICIDES” (BASF SE, priority 2016, published 2025).
